{"source": "patent US8822520B2", "about": "“Substituted bicyclic HCV inhibitors” (Presidio Pharmaceuticals, Inc., priority 2010, dated 2014)", "data": [{"system": "HCV genotype 1b replicon in Huh 7 cells (HCV 1b_Huh-Luc/Neo-ET cell line)", "assay": "HCV replicon assay (luciferase readout)", "format": "cell-based", "details": "Hepatitis C virus, Huh-7, 72 h, read-out: Inhibition of HCV genotype lb", "description": "(§1) Biological activity of the compounds of the invention was determined using an HCV replicon assay. The HCV 1b_Huh-Luc/Neo-ET cell line persistently expressing a bicistronic genotype 1b replicon in Huh 7 cells was obtained from ReBLikon GMBH. This cell line was used to test compound inhibition using luciferase enzyme activity readout as a measurement of compound inhibition of replicon levels.\n(§2) On Day 1 (the day after plating cells), each compound is added in triplicate to the cells. Plates are incubated for 72 h prior to determining luciferase levels. Enzyme activity was measured using a Bright-Glo Kit (cat. number E2620) manufactured by Promega Corporation. The following equation was used to generate a percent control value for each compound. % Control=(Compound Luciferase Level/Control Luciferase Level)*100\n(§3) The EC50 value was determined using GraphPad Prism and the following equation: Y=Bottom asymptote+(Top asymptote−Bottom asymptote)/(1+10^((Log EC50−X)*HillSlope))\n(§4) EC50 values of compounds are determined several times in the replicon assay to generate average EC50 values.", "units": {"EC50": "nM"}, "values": [{"smiles": "COCCOc1cc(-c2cnc([C@@H]3CCCN3C(=O)[C@@H](NC(=O)OC)C(C)C)[nH]2)ccc1-c1ccc(-c2cnc([C@@H]3CCCN3C(=O)[C@@H](NC(=O)OC)C(C)C)[nH]2)c(OCCOC)c1", "note": "[Compound 51]", "EC50": "< 1"}, {"smiles": "COCCOc1cc(-c2cnc([C@@H]3CCCN3C(=O)[C@H](COC)NC(=O)OC)[nH]2)ccc1-c1ccc(-c2cnc([C@@H]3CCCN3C(=O)[C@@H](NC(=O)OC)C(C)C)[nH]2)cc1OCCOC", "note": "[Compound 87]", "EC50": "1 to 9.9"}, {"smiles": "COCCOc1cc(-c2cnc([C@@H]3CCCN3C(=O)[C@@H](NC(=O)OC)C(C)C)[nH]2)c(OCCOC)cc1-c1ccc(-c2cnc([C@@H]3CCCN3C(=O)[C@@H](NC(=O)OC)C(C)C)[nH]2)cc1", "note": "[Compound 55]", "EC50": "< 1"}, {"smiles": "COCCOc1cc(-c2ccc(-c3cnc([C@@H]4CCCN4C(=O)[C@@H](NC(=O)OC)C(C)C)[nH]3)cc2)ccc1-c1cnc([C@@H]2CCCN2C(=O)[C@@H](NC(=O)OC)C(C)C)[nH]1", "note": "[Compound 53]", "EC50": "< 1"}, {"smiles": "COCCOc1cc(-c2cnc([C@@H]3CCCN3C(=O)[C@@H](NC(=O)OC)C(C)C)[nH]2)ccc1-c1ccc(-c2cnc([C@@H]3CCCN3C(=O)[C@H](NC(=O)OC)c3ccsc3)[nH]2)cc1OCCOC", "note": "[Compound 88]", "EC50": "< 1"}, {"smiles": "COCCOc1cc(-c2cnc([C@@H]3CCCN3C(=O)[C@@H](c3ccccc3)N(C)C)[nH]2)ccc1-c1ccc(-c2cnc([C@@H]3CCCN3C(=O)[C@@H](c3ccccc3)N(C)C)[nH]2)cc1OCCOC", "note": "[Compound 81]", "EC50": "1 to 9.9"}, {"smiles": "COCCOc1cc(-c2cnc([C@@H]3CCCN3C(=O)[C@@H](NC(=O)OC)C3CCOCC3)[nH]2)ccc1-c1ccc(-c2cnc([C@@H]3CCCN3C(=O)[C@@H](NC(=O)OC)C3CCOCC3)[nH]2)cc1OCCOC", "note": "[Compound 77]", "EC50": "1 to 9.9"}, {"smiles": "COCCOc1cc(-c2ccc(-c3cnc([C@@H]4CCCN4C(=O)[C@@H](NC(=O)OC)C(C)C)[nH]3)c(OCCOC)c2)ccc1-c1cnc([C@@H]2CCCN2C(=O)[C@@H](NC(=O)OC)C(C)C)[nH]1", "note": "[Compound 54]", "EC50": "1 to 9.9"}, {"smiles": "COCCOc1c(-c2ccc(-c3cnc([C@@H]4CCCCN4C(=O)[C@@H](NC(=O)OC)C(C)C)[nH]3)cc2)ccc(-c2cnc([C@@H]3CCCCN3C(=O)[C@@H](NC(=O)OC)C(C)C)[nH]2)c1OCCOC", "note": "[Compound 91]", "EC50": "1 to 9.9"}, {"smiles": "COCCOc1cc(-c2cnc([C@@H]3CCCN3C(=O)[C@H](NC(=O)OC)c3ccsc3)[nH]2)ccc1-c1ccc(-c2cnc([C@@H]3CCCN3C(=O)[C@H](NC(=O)OC)c3ccsc3)[nH]2)cc1OCCOC", "note": "[Compound 78]", "EC50": "1 to 9.9"}, {"smiles": "COCCOc1cc(-c2cnc([C@@H]3CCCN3C(=O)[C@@H](NC(=O)OC)C(C)(C)C)[nH]2)ccc1-c1ccc(-c2cnc([C@@H]3CCCN3C(=O)[C@@H](NC(=O)OC)C(C)(C)C)[nH]2)cc1OCCOC", "note": "[Compound 76]", "EC50": "< 1"}]}, {"system": "HCV genotype 1b replicon in Huh 7 cells (HCV 1b_Huh-Luc/Neo-ET cell line)", "assay": "HCV replicon assay (luciferase readout)", "format": "cell-based", "details": "Hepatitis C virus, Huh-7; Table 1; EC50 range class; replicon luciferase, 72 h incubation, average EC50; read-out: Inhibition of HCV genotype 1b", "description": "as §1, §2, §3, §4", "units": {"EC50": "nM"}, "values": [{"smiles": "CC[C@H](C)[C@H](NC(=O)OC)C(=O)N1CCC[C@H]1c1ncc(-c2ccc(-c3ccc(-c4cnc([C@@H]5CCCN5C(=O)[C@@H](NC(=O)OC)C(C)C)[nH]4)cc3OCCOC)c(OCCOC)c2)[nH]1", "note": "[Compound 35]", "EC50": "< 1"}, {"smiles": "COCCOc1cc(-c2cnc([C@@H]3CCCN3C(=O)[C@@H](NC(=O)OC)C3CCCCC3)[nH]2)ccc1-c1ccc(-c2cnc([C@@H]3CCCN3C(=O)[C@@H](NC(=O)OC)C3CCCCC3)[nH]2)cc1OCCOC", "note": "[Compound 9]", "EC50": "< 1"}, {"smiles": "COCCOc1c(-c2ccc(-c3cnc([C@@H]4CCCN4C(=O)[C@@H](NC(=O)OC)C(C)C)[nH]3)cc2)ccc(-c2cnc([C@@H]3CCCN3C(=O)[C@@H](c3ccccc3)N(C)C)[nH]2)c1OCCOC", "note": "[Compound 33]", "EC50": "< 1"}, {"smiles": "COCCOc1cc(-c2cnc([C@@H]3CCCN3C(=O)C(NC(=O)OC)[C@@H](C)OC)[nH]2)ccc1-c1ccc(-c2cnc([C@@H]3CCCN3C(=O)C(NC(=O)OC)[C@@H](C)OC)[nH]2)cc1OCCOC", "note": "(stereo partly drawn) [Compound 25]", "EC50": "1 to 9.9"}, {"smiles": "CC[C@H](C)C(NC(=O)OC)C(=O)N1CCC[C@H]1c1ncc(-c2ccc(-c3ccc(-c4cnc([C@@H]5CCCN5C(=O)C(NC(=O)OC)[C@@H](C)CC)[nH]4)cc3OCCOC)c(OCCOC)c2)[nH]1", "note": "(stereo partly drawn) [Compound 7]", "EC50": "< 1"}, {"smiles": "COC(=O)N[C@H](C(=O)N1CCC[C@H]1c1ncc(-c2ccc3cc2OCCOCCOCCOCCOCCOc2cc-3ccc2-c2cnc([C@@H]3CCCN3C(=O)[C@@H](NC(=O)OC)C(C)C)[nH]2)[nH]1)C(C)C", "note": "[Compound 42]", "EC50": "1 to 9.9"}, {"smiles": "COCCOc1cc(-c2cnc([C@@H]3CCCN3C(=O)[C@@H](NC(=O)OC)C(C)C)[nH]2)ccc1-c1ccc(-c2cnc([C@@H]3CCCN3C(=O)[C@@H](NC(=O)OC)[C@@H](C)OC)[nH]2)cc1OCCOC", "note": "[Compound 34]", "EC50": "1 to 9.9"}, {"smiles": "COCCOc1cc(-c2cnc([C@@H]3CCCN3C(=O)[C@@H](NC(=O)OC)C(C)C)[nH]2)ccc1-c1ccc(-c2cnc([C@@H]3CCCN3C(=O)[C@H](NC(=O)OC)c3ccccc3)[nH]2)cc1OCCOC", "note": "[Compound 37]", "EC50": "< 1"}, {"smiles": "COCCOc1c(-c2ccc(-c3cnc([C@@H]4CCCN4C(=O)[C@H](NC(C)=O)c4ccccc4)[nH]3)cc2)ccc(-c2cnc([C@@H]3CCCN3C(=O)[C@H](NC(C)=O)c3ccccc3)[nH]2)c1OCCOC", "note": "[Compound 23]", "EC50": "< 1"}, {"smiles": "COCCOc1cc(-c2cnc([C@@H]3CCCN3C(=O)[C@H](NC(=O)OC)c3ccccc3)[nH]2)ccc1-c1ccc(-c2cnc([C@@H]3CCCN3C(=O)[C@H](NC(=O)OC)c3ccccc3)[nH]2)cc1OCCOC", "note": "[Compound 26]", "EC50": "< 1"}, {"smiles": "COCCOc1c(-c2ccc(-c3cnc([C@@H]4CCCN4C(=O)[C@@H](NC(=O)OC)C4CCOCC4)[nH]3)cc2)ccc(-c2cnc([C@@H]3CCCN3C(=O)[C@@H](NC(=O)OC)C3CCOCC3)[nH]2)c1OCCOC", "note": "[Compound 14]", "EC50": "1 to 9.9"}, {"smiles": "COCCOc1c(-c2ccc(-c3cnc([C@@H]4CCCN4C(=O)[C@H](NC(=O)OC)c4cccs4)[nH]3)cc2)ccc(-c2cnc([C@@H]3CCCN3C(=O)[C@H](NC(=O)OC)c3cccs3)[nH]2)c1OCCOC", "note": "[Compound 22]", "EC50": "< 1"}, {"smiles": "COC(=O)N[C@H](C(=O)N1CCC[C@H]1c1ncc(-c2ccc3c(c2)OCCOCCOCCOc2cc(-c4cnc([C@@H]5CCCN5C(=O)[C@@H](NC(=O)OC)C(C)C)[nH]4)ccc2-3)[nH]1)C(C)C", "note": "[Compound 44]", "EC50": "1 to 9.9"}, {"smiles": "CC[C@H](C)C(NC(=O)OC)C(=O)N1CCC[C@H]1c1ncc(-c2ccc(-c3ccc(-c4cnc([C@@H]5CCCN5C(=O)[C@@H](NC(=O)OC)[C@@H](C)CC)[nH]4)c(OCCOC)c3OCCOC)cc2)[nH]1", "note": "(stereo partly drawn) [Compound 3]", "EC50": "< 1"}, {"smiles": "COCCOc1c(-c2ccc(-c3cnc([C@H](C)NC(=O)[C@@H](NC(=O)OC)C(C)C)[nH]3)cc2)ccc(-c2cnc([C@@H]3CCCN3C(=O)[C@@H](NC(=O)OC)C(C)C)[nH]2)c1OCCOC", "note": "[Compound 39]", "EC50": "1 to 9.9"}, {"smiles": "COCCOc1c(-c2ccc(-c3cnc([C@@H]4CCCN4C(=O)C(NC(=O)OC)[C@@H](C)OC)[nH]3)cc2)ccc(-c2cnc([C@@H]3CCCN3C(=O)C(NC(=O)OC)[C@@H](C)OC)[nH]2)c1OCCOC", "note": "(stereo partly drawn) [Compound 12]", "EC50": "1 to 9.9"}, {"smiles": "COCCOc1c(-c2ccc(-c3cnc([C@@H]4CCCN4C(=O)[C@@H](NC(=O)OC)C(C)C)[nH]3)cc2)ccc(-c2cnc([C@@H]3CCCN3C(=O)[C@H](NC(=O)OC)c3ccsc3)[nH]2)c1OCCOC", "note": "[Compound 31]", "EC50": "< 1"}, {"smiles": "COCCOc1c(-c2ccc(-c3cnc([C@@H]4CCCN4C(=O)[C@@H](NC(=O)OC)C4CCCC4)[nH]3)cc2)ccc(-c2cnc([C@@H]3CCCN3C(=O)[C@@H](NC(=O)OC)C3CCCC3)[nH]2)c1OCCOC", "note": "[Compound 4]", "EC50": "< 1"}, {"smiles": "COCCOc1c(-c2ccc(-c3cnc([C@@H]4CCCN4C(=O)[C@@H](NC(=O)OC)C(C)C)[nH]3)cc2)ccc(-c2cnc([C@@H]3CCCN3C(=O)[C@@H](c3ccccc3)N3CCCC3)[nH]2)c1OCCOC", "note": "[Compound 45]", "EC50": "< 1"}]}]}
